{
  "source": "patent EP2241565A1",
  "about": "“Aurora kinase inhibitors compounds” (Universität Leipzig, priority 2009, dated 2010)",
  "key": {"Aurora A": {"target": "T1, Aurora A (Homo sapiens, UniProt O14965)", "T1 construct": "made in house", "T1 sequence (O14965 1-403)": "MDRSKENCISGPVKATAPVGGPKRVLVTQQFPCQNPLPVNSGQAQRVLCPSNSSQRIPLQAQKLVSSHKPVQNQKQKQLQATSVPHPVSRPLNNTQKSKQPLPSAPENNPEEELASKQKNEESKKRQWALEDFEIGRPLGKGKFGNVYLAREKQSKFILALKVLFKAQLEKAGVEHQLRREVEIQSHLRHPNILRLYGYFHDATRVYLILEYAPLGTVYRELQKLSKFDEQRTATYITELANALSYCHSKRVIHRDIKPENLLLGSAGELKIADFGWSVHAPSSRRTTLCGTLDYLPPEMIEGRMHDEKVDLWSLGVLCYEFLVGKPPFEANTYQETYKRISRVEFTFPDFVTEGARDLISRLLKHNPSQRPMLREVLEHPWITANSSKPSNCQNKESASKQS", "assay": "In vitro Aurora A kinase assay (Invitrogen Z'-lyte kinase assay kit, Ser/Thr 1 peptide)", "format": "biochemical", "conditions": "for pIC50: 10 µM ATP; for selectivity for Aurora A against other kinases: versus Aurora B and receptor-tyrosine kinases", "method": "The IC50 for the different compounds was determined with Invitrogen Z'-Iyte kinase assay kit Ser/Thr 1 peptide PV3174 following the manufacturer's instructions. […] This amount was then used in subsequent assay steps.\nCompounds were prepared in 384-well plates (Greiner 384-well PP 781280) at a highest concentration of 400 µM (in 4% DMSO) and then serially diluted in 2-fold steps by hand, keeping the DMSO percentage constant. 1.25 µl of compound solution was subsequently transferred 1:1 to a 384-well assay plate (Greiner 384-well ProxiPlate Plus F 6008260) for screening at a highest concentration in the final assay of 100 µM (in 1% DMSO).\nIn the first step, 2.5 µl of a solution containing 8 nM Aurora A (batch S74, prepared in-house at EMBL) or 40 nM Aurora B (Invitrogen PV3970) and 4 µM Ser/Thr peptide 1 (Invitrogen PV3174) was added to each well, followed by 1.25 µl of the respective ATP solution (40 µM for Aurora A, 256 µM for Aurora B). The final 5 µl reaction volume consisted of 4 nM Aurora A or 20 nM Aurora B, 2 µM Ser/Thr 1 peptide, 50 mM HEPES pH 7.5, 0.01 % BRIJ-35, 10 mM MgCl2, and 1 mM EGTA, in addition to 10 µM or 64 µM ATP (for Aurora A and Aurora B, respectively). […] The plates were then spun down at 1000 rpm for 1 min, followed by incubation at rt for 1 h. In the second step, 2.5 µl of Development solution (Development A reagent diluted 1:2048 in development buffer) was added to each well, followed again by centrifugation at 1000 rpm for 1 min and subsequent incubation at rt for 1 h. In the final step, the reaction in each well was stopped by the addition of 2.5 µl Stop reagent, followed by a brief centrifugation step and immediate readout (PerkinElmer EnVision HTS; ex. 405 nm, coumarin em. 450 nm, fluorescein em. 535 nm).\nPercentage phosphorylation was calculated using 0% and 100% phosphorylation controls. The former wells contained 1.25 µl DMSO (4%), 1.25 µl buffer (as above), and 2.5 µl of a 4 µM Ser/Thr 1 peptide solution (without kinase), while in the latter the peptide solution was replaced by a 4 µM solution of a supplied phosphopeptide. The action of the development reagent was assessed using protease controls (standard wells with and without development solution added in step two).\nThe [coumarin emission/fluorescein emission] ratio was used together with the min. and max. signals at the two wavelengths to yield percentage phosphorylation, from which inhibition was derived (according to manufacturer's instructions). Calculated inhibition values were then fitted to 11-point variable slope sigmoidal dose-response curves using GraphPad Prism software, yielding the compound IC50s."}, "HeLa cells": {"test_system": "HeLa cells", "assay": "Flow cytometry (FACS) DNA content / cell cycle profile", "format": "cell-based, human", "conditions": "24 h; for % of cells 2<n<4 / % of cells 2n / % of cells 4n / % of cells <2n / % of cells >4n: HeLa cells; for effect on DNA content / distribution of cells in the cell cycle stages: ZM1 2 µM, (A) and (C) increasing concentrations", "method": "Adherent HeLa cells were routinely passaged and maintained in D-MEM medium supplemented with 10% Fetal Bovine Serum (FBS), 1% Penicillin/Streptomycin and 2 mM L-Glutamine. The cells were cultured at 37 °C; 5% CO2. hTERT-RPE1 cells were grown in DMEM with 10% fetal bovine serum. HeLa cells constitutively expressing green fluorescent protein-conjugated Histone H2B and mRed fluorescent protein-conjugated α-tubulin were maintained in D-MEM medium supplemented with 10% Fetal Bovine Serum (FBS), 1% Penicillin/Streptomycin, 2 mM L-Glutamine and 0.5 µg/mL Puromycin and cultured at 37 °C; 5% CO2.\nAfter treatment, FACS analysis was performed on a BD FACSCanto™ Flow Cytometer (Cat.No. 335860 BD Biosciences) using FACSDiva Software. Cells were trypsinized, washed wish PBS and fixed overnight in EtOH (-20°C). After washing with PBS, cells were stained with a propidium iodide solution (PI; 15 µg/mL)/ RNase A (30 µg/mL) for 30 min at 37 °C. RNase was added to avoid signals caused by the binding of PI to RNA.\nWe first examined by flow cytometry the cell cycle profiles of HeLa cells incubated in medium containing increasing concentrations of any of (A) or (C) for 24 h."}, "[1]": {"test_system": "H2B-GFP/mRFP-αTubulin HeLa cells", "assay": "Time-lapse video microscopy of live cells", "format": "cell-based, human", "conditions": "40 µM", "method": "Upon treatment, living cells were added to a humidified chamber at 37 °C with 5% CO2 attached to a Carl Zeiss microscope (SN:3834000366) equipped with a Hamamatsu EM-CCD digital camera, controlled by AxioVision 4.6 software. Cells were imaged every 3 or 4.5 min (depending on the number of fields filmed) for over 16 h-24 h. Images were taken with the AxioCam MRm 426205 objective and processed using AxioVision software.\nThe increase in the proportion of cells with more than 2n DNA content could be due to several causes: several cycles of DNA replication or cytokinesis errors as shown for cells treated with other Aurora inhibitors. To determine the primary cause for the phenotype produced by (C) and examine whether (A) may interfere with mitosis, we examined live cells by time-lapse video microscopy. To visualize DNA and microtubules we used a HeLa stable cell line expressing H2B-GFP and mRFP-αTubulin. […] The resulting time-lapse images were used to determine the following parameters: (1) the percentage of cell death among non dividing cells (Figure 4A), (2) the percentage of cells entering mitosis (Figure 4B), (3) the outcome of mitosis: normal division (cell division), return to interphase without chromatin segregation and without dividing (no division), cytokinesis failure (division errors), cell death without resolving mitosis (cell death) (Figure 4C), and (4) the length of time spent in mitosis (TIM), defined as the interval between DNA condensation and anaphase resolution (Figure 4D)."}},
  "note": "pIC50: −log10 of the molar value. Entries after “also recorded” stand apart in the source; their conditions may differ.",
  "data": [
    {"compound": "CC(C)Nc1nc(-c2ccco2)nc2ccc(C#CCO)cc12", "note": "[Compound (C), 3-(2-(Furan-2-yl)-4-(isoiproipylamino)quinazolin-6-yl)prop-2-yn-l-ol]", "values": [
      {"measurement": "pIC50", "setting": "Aurora A", "result": 5.56},
      {"measurement": "selectivity for Aurora A against other kinases", "setting": "Aurora A", "result": "selective inhibition of Aurora A"},
      {"measurement": "% of cells 2<n<4", "setting": "HeLa cells; 20µM", "result": 17.5, "unit": "%"},
      {"measurement": "% of cells 2n", "setting": "HeLa cells; 20µM", "result": 55.2, "unit": "%"},
      {"measurement": "% of cells 4n", "setting": "HeLa cells; 20µM", "result": 19.0, "unit": "%"},
      {"measurement": "% of cells <2n", "setting": "HeLa cells; 20µM", "result": 7.6, "unit": "%"},
      {"measurement": "% of cells >4n", "setting": "HeLa cells; 20µM", "result": 1.3, "unit": "%"},
      {"measurement": "% of cells 2<n<4", "setting": "HeLa cells; 40µM", "result": 20.0, "unit": "%"},
      {"measurement": "% of cells 2n", "setting": "HeLa cells; 40µM", "result": 47.2, "unit": "%"},
      {"measurement": "% of cells 4n", "setting": "HeLa cells; 40µM", "result": 21.2, "unit": "%"},
      {"measurement": "% of cells <2n", "setting": "HeLa cells; 40µM", "result": 10.5, "unit": "%"},
      {"measurement": "% of cells >4n", "setting": "HeLa cells; 40µM", "result": 1.8, "unit": "%"},
      {"measurement": "% of cells 2<n<4", "setting": "HeLa cells; 100µM", "result": 25.2, "unit": "%"},
      {"measurement": "% of cells 2n", "setting": "HeLa cells; 100µM", "result": 21.4, "unit": "%"},
      {"measurement": "% of cells 4n", "setting": "HeLa cells; 100µM", "result": 41.8, "unit": "%"},
      {"measurement": "% of cells <2n", "setting": "HeLa cells; 100µM", "result": 10.0, "unit": "%"},
      {"measurement": "% of cells >4n", "setting": "HeLa cells; 100µM", "result": 1.5, "unit": "%"},
      {"measurement": "effect on DNA content / distribution of cells in the cell cycle stages", "setting": "HeLa cells", "result": "increased amount of 4n DNA; also recorded: dose dependent increase in the proportion of cells with more than 2n DNA content"},
      {"measurement": "outcome of mitosis", "setting": "[1]", "result": "unable to align their chromosomes and died without entering a new interphase; also recorded: died without returning to interphase or right after an asymmetric segregation"},
      {"measurement": "time spent in mitosis (TIM), median", "setting": "[1]", "result": 375, "unit": "min"},
      {"measurement": "number of cells entering mitosis", "setting": "[1]; 16 h-24 h", "result": "reduced"},
      {"measurement": "cells entered mitosis", "setting": "[1]; time-lapse video microscopy", "result": 28.8, "unit": "%"}
    ]},
    {"compound": "CC(C)Nc1nc(-c2ccco2)nc2ccc(/C=C/C(C)(C)O)cc12", "note": "[Compound (A), (E)-4-(2-(Furan-2-yl)-4-(isopropylamino)quinazolin-6-yl)-2-methylbut-3-en-2-ol]", "values": [
      {"measurement": "pIC50", "setting": "Aurora A", "result": 5.71},
      {"measurement": "selectivity for Aurora A against other kinases", "setting": "Aurora A", "result": "selective inhibition of Aurora A"},
      {"measurement": "% of cells 2<n<4", "setting": "HeLa cells; 20µM", "result": 17.6, "unit": "%"},
      {"measurement": "% of cells 2n", "setting": "HeLa cells; 20µM", "result": 58.5, "unit": "%"},
      {"measurement": "% of cells 4n", "setting": "HeLa cells; 20µM", "result": 19.2, "unit": "%"},
      {"measurement": "% of cells <2n", "setting": "HeLa cells; 20µM", "result": 4.4, "unit": "%"},
      {"measurement": "% of cells >4n", "setting": "HeLa cells; 20µM", "result": 0.7, "unit": "%"},
      {"measurement": "% of cells 2<n<4", "setting": "HeLa cells; 40µM", "result": 17.7, "unit": "%"},
      {"measurement": "% of cells 2n", "setting": "HeLa cells; 40µM", "result": 58.5, "unit": "%"},
      {"measurement": "% of cells 4n", "setting": "HeLa cells; 40µM", "result": 19.9, "unit": "%"},
      {"measurement": "% of cells <2n", "setting": "HeLa cells; 40µM", "result": 3.8, "unit": "%"},
      {"measurement": "% of cells >4n", "setting": "HeLa cells; 40µM", "result": 3.8, "unit": "%"},
      {"measurement": "% of cells 2<n<4", "setting": "HeLa cells; 100µM", "result": 15.5, "unit": "%"},
      {"measurement": "% of cells 2n", "setting": "HeLa cells; 100µM", "result": 48.4, "unit": "%"},
      {"measurement": "% of cells 4n", "setting": "HeLa cells; 100µM", "result": 20.8, "unit": "%"},
      {"measurement": "% of cells <2n", "setting": "HeLa cells; 100µM", "result": 13.8, "unit": "%"},
      {"measurement": "% of cells >4n", "setting": "HeLa cells; 100µM", "result": 2.1, "unit": "%"},
      {"measurement": "effect on DNA content / distribution of cells in the cell cycle stages", "setting": "HeLa cells", "result": "did not alter the distribution of cells in the different cell cycle stages"},
      {"measurement": "cell death among non dividing cells / cell viability", "setting": "[1]", "result": "increased cell death rate; also recorded: massive cell death; also recorded: strong effect on cell viability independent of mitosis"},
      {"measurement": "outcome of mitosis", "setting": "[1]", "result": "completed it successfully"}
    ]}
  ]
}
